Measured values as given in patent US20100215782A1, “NOVEL MITOCHONDRIAL UNCOUPLING METHODS AND COMPOSITIONS FOR ENHANCING ADIPOCYTE THERMOGENESIS” (METAPROTEOMICS, LLC, priority 2008, published 2010).

Legend:
[1] = system: 3T3-L1 adipocytes; assay: JC-1 mitochondrial membrane potential (uncoupling) assay in 3T3-L1 adipocytes; assay type: cell-based, murine; conditions: for Monomer/Aggregate Ratio: 3T3-L1 adipocytes, test material 25 μg/mL, JC-1 fluorescence relative to JC-1 negative control, values >1.06 significant (p<0.05)
Excerpt: Objective—The objective of this experiment was to observe the dose-response effect of the mitochondrial uncoupler DNP on mitochondrial membrane potential in 3T3-L1 adipocytes using the lipophilic cationic dye, 5,5′,6,6′-tetrachloro-1,1′,3,3′-tetraethylbenzimidazolylcarbocyanine iodide (JC-1).
The Model—The 3T3-L1 murine fibroblast model is commonly used to study the potential effects of compounds on white adipose tissue in vitro. This cell line allows investigation of stimuli and mechanisms that regulate inflammatory mediators of cytokine secretion of the adipocyte. As preadipocytes, 3T3-L1 cells have a fibroblastic appearance. They replicate in culture until they form a confluent monolayer, after which cell-cell contact triggers Go/G1 growth arrest. Terminal differentiation of 3T3-L1 cells to adipocytes depends on proliferation of both pre- and post-confluent preadipocytes. Subsequent stimulation with 3-isobutyl-1-methylxanthane, dexamethasone, and high does of insulin (MDI) for two days prompts these cells to undergo post-confluent mitotic clonal expansion, exit the cell cycle, and begin to express adipocyte-specific genes. Approximately five days after induction of differentiation, more than 90% of the cells display the characteristic lipid-filled adipocyte phenotype. At this stage of differentiation, response to mitochondrial uncouplers such as DNP may be assessed.
Cell culture and Treatment—The murine fibroblast cell line 3T3-L1 was purchased from the American Type Culture Collection (Manassas, Va.) and sub-cultured according to instructions from the supplier. Prior to experiments, cells were cultured in DMEM containing 10% FBS-HI added 50 units penicillin/ml and 50 μg streptomycin/ml, and maintained in log phase prior to experimental setup. Cells were grown in a 5% CO2 humidified incubator at 37° C. Components of the pre-confluent medium included: (1) 10% FBS/DMEM (Fetal Bovine Serum/Dulbecco's Modified Eagle's Medium) containing 4.5 g glucose/L; (2) 50 U/ml penicillin; and (3) 50 μg/ml streptomycin. Growth medium was made by adding 50 ml of heat inactivated FBS and 5 ml of penicillin/streptomycin to 500 ml DMEM. This medium was stored at 4° C. Before use, the medium was warmed to 37° C. in a water bath.
[…] cells were seeded at an initial density of 6×10^4 cells/cm^2 in 24-well plates. For two days, the cells were allowed grow to reach confluence. Following confluence, the cells were forced to differentiate into adipocytes by the addition of differentiation medium; this medium consisted of (1) 10% FBS/DMEM (high glucose); (2) 0.5 mM methylisobutylxanthine; (3) 0.5 μM dexamethasone and (4) 10 μg/ml insulin (MDI medium). After three days, the medium was changed to post-differentiation medium consisting of 10 μg/ml insulin in 10% FBS/DMEM.
Treatment with Test Material 2,4-Dinitrophenol—On Day 6 post differentiation, DNP was dissolved in dimethyl sulfoxide (DMSO) and added to the culture medium to achieve concentrations of 500, 100, 50, 10 or 5 μM per column for 60 min at 37° C. JC-1 was then added to the test and negative control columns in 10 μL DMSO to achieve a final concentration of 5 μM and allowed to incubate at 37° C. for an additional 30 min. A DMSO and solvent plus JC-1 control were run concurrently with each experiment. A Packard Fluorocount spectrofluorometer (Model#BF10000, Meridan, Conn.) set at 560 nm excitation and 590 nm emission was used for quantification of aggregate fluorescence and at 485 nm excitation/530 emission for monomer fluorescence.
Measuring mitochondrial membrane potential changes (ΔΨm)—JC-1 (Sigma, St. Louis, Mo.) has advantages over other cationic dyes in that it can selectively enter into mitochondria and reversibly change color from green to red as the membrane potential increases. In healthy cells with high mitochondrial membrane potential (ΔΨm), JC-1 spontaneously forms complexes known as J-aggregates with intense red fluorescence. […]

[2] = cited from earlier work

COc1cc(/C=C/C(=O)CC(=O)/C=C/c2ccc(O)c(OC)c2)ccc1O [Curcumin]
Monomer/Aggregate Ratio [1]: 3.89

O=[N+]([O-])c1ccc(O)c([N+](=O)[O-])c1 [DNP, 2,4-dinitrophenol]
Potency of positive control (decrease of ΔΨm) ([1]; 18.4 μg DNP/mL): 45%
Mean M/A (monomer/aggregate ratio) of positive control ([1]; 100 μM 2,4-dinitrophenol (18.4 μg DNP/mL), 95% CI=1.34-1.39, n=200, over the experimental period): 1.36
Concentration at which monomer/aggregate ratio is significantly increased (p<0.05) relative to JC-1 negative controls ([1]; 3T3-L1 adipocytes, 500, 100, 50, 10 or 5 μM for 60 min, FIG. 2): ≥ 50 µM
Change of ΔΨm in 3T3-L1 adipocytes (in words) ([1]; relative to negative JC-1 controls): dose-related decreased in ΔΨm
Average fall in diastolic blood pressure ([2]; 30 hypertensive patients): 12.6%
Average fall in systolic blood pressure ([2]; 30 hypertensive patients): 9.4%
Dose generally well-tolerated ([2]; approximately 5 mg/kg body weight, feeling of warmth and increased perspiration reported): up to 0.5 g
Gradual increase in metabolic rate (average) ([2]; daily dosing of 3-5 mg/kg, maintained for a minimum of ten weeks): 40%
Dose producing profuse sweating, increased heart rate, respiration rate and excessive body temperature rises ([2]; human, in vivo): Above 10 mg/kg
Average increase in metabolic rate for each dosage increment of 0.1 g ([2]; obese patients): 11%
Increase in resting metabolic rate ([2]; single doses of 3-5 mg/kg, within the first hour, maintained for 24 hours): 20-30%
Effect on blood pressure or heart rate ([2]; therapeutic doses, normal patients): no effect on blood pressure or heart rate

Oc1ccc(C=Cc2cc(O)cc(O)c2)cc1 [Resveratrol]
Monomer/Aggregate Ratio [1]: 1.48

CNCC(O)c1ccc(O)cc1 (centres unmarked) [Synephrine]
Monomer/Aggregate Ratio [1]: 1.06

CCCCC[C@H](O)CC(=O)CCc1ccc(O)c(OC)c1 [6-Gingerol]
Monomer/Aggregate Ratio [1]: 1.14

C[C@@H]1O[C@@H](OC[C@H]2O[C@@H](Oc3c(-c4ccc(O)c(O)c4)oc4cc(O)cc(O)c4c3=O)[C@H](O)[C@@H](O)[C@@H]2O)[C@H](O)[C@H](O)[C@H]1O [Rutin Powder, Rutin]
Monomer/Aggregate Ratio [1]: 1.37
